Reference: ChEMBL document CHEMBL1150737, “Antitumor agents, 90. Bruceantinoside C, a new cytotoxic quassinoid glycoside from Brucea antidysenterica” (1987)
In brackets after ≈: the same amount, converted by molar mass.

How the values were obtained:
[1] = system: P388; assay: Cytotoxicity against mouse P388 cells; assay type: functional; settings: read-out: ED50 (the source's name)
[2] = system: L1210; assay: Cytotoxicity against mouse L1210 cells; assay type: functional; settings: read-out: ED50 (the source's name)

Row | Compound | EC50 [1] [µg/mL] | EC50 [2] [µg/mL]
1 | COC(=O)[C@]12OC[C@]34[C@H]([C@@H](O)[C@@H]1O)[C@@]1(C)C(=O)C(O[C@@H]5O[C@H](CO)[C@@H](O)[C@H](O)[C@H]5O)=C[C@@H](C)[C@@H]1C[C@H]3OC(=O)[C@H](OC(=O)/C=C(\C)C(C)(C)OC(C)=O)[C@@H]24 [Bruceantinoside C] | 2.12 (≈ 2.76 µM) | 3.5 (≈ 4.55 µM)
2 | COC(=O)[C@]12OC[C@]34[C@H]([C@@H](O)[C@@H]1O)[C@@]1(C)C=C(O[C@@H]5O[C@H](CO)[C@@H](O)[C@H](O)[C@H]5O)C(=O)[C@@H](C)[C@@H]1C[C@H]3OC(=O)[C@H](OC(=O)/C=C(\C)C(C)(C)OC(C)=O)[C@@H]24 [Yadanzioside G] | 1.25 (≈ 1.63 µM) | 2.58 (≈ 3.36 µM)
3 | COC(=O)[C@]12OC[C@]34[C@H]([C@@H](O)[C@@H]1O)[C@@]1(C)C(=O)C(O[C@@H]5O[C@H](CO)[C@@H](O)[C@H](O)[C@H]5O)=C[C@@H](C)[C@@H]1C[C@H]3OC(=O)[C@H](OC(=O)/C=C(\C)C(C)C)[C@@H]24 [Yadanzioside N] | 2.24 (≈ 3.15 µM) | 4.56 (≈ 6.42 µM)
4 | O=c1[nH]cc(F)c(=O)[nH]1 [FLUOROURACIL] | 3.72 (≈ 28.6 µM) | 1.94 (≈ 14.9 µM)
